Test results as given in a melting point compilation (Tetko et al.; mined from patent text by program, amines drawn as free bases though some values may be those of a salt).

Row | SMILES | melting point
1 | Cc1cc(-c2ccc(S(C)(=O)=O)cc2)n(-c2ccc(C)c(C)c2)c1 | 126 to 128 °C
2 | Nc1nc2ccc(Cl)nc2c(=O)[nH]1 | > 330 °C
3 | Fc1ccc(-c2[nH]c(=S)sc2CCCl)cc1 | 176 °C
4 | COc1cc2c(cc1OC)/C(=C/c1cc(OC)c(OC)c(OC)c1)N(C(=O)Cc1cc(OC)c(OC)c(OC)c1)CC2 | 148 to 150 °C
5 | CC(=O)NCC(=O)NCC1(S)C2CC3CC(C2)CC1C3 (stereo not drawn) | 154 to 157 °C
6 | CN=Cc1ccc2c(Br)c(OC)ccc2c1 | 105 to 107 °C
7 | O=C(NCCC1OCCO1)c1ccc[nH]1 | 133 to 135 °C
8 | CNC(=O)Oc1ccc(NC=O)c2c1CCCC2 | 165 to 166 °C
9 | CCCCCS(=O)(=O)NC(=O)CCc1cc(OCCCC)nn1Cc1ccc(C(F)(F)F)cc1Cl | 131 to 133 °C
10 | Clc1cccc(CC[C@H]2CNCCN2)c1 | 93 to 97 °C
11 | Cc1cc(C2C(=O)Oc3c2cc(C(C)(C)C)cc3C(C)(C)C)cc(C)c1OC(=O)C(C)(C)C (stereo not drawn) | 140 to 142 °C
12 | CN(C)CCNc1ccc(NCCN(C)C)c2c1C(=O)c1c(O)ccc(O)c1C2=O | 236 to 238 °C
13 | COC(=O)CCCCCCCCCCCCCCCCCCCCCN1C(=O)c2ccccc2C1=O | 88.5 to 90.5 °C
14 | O=C(O)CCCS(=O)(=O)NC(=O)CCC(F)(F)C(F)(F)C(F)(F)C(F)(F)C(F)(F)C(F)(F)F | 175 to 180 °C
15 | CCCOc1nc(N)nc2c1ncn2C1C=CC(CO)C1 (stereo not drawn) | 97 to 99 °C
16 | O=C(O)c1cccc(OC(F)(F)C(F)Cl)c1 (stereo not drawn) | 79 to 85 °C
17 | CCOC(=O)CCc1c[nH]c2ccc([N+](=O)[O-])cc12 | 118 to 121 °C
18 | COC(=O)Cc1cc(O)c(C(C)(C)C)cc1C | 100 to 102 °C
19 | Cn1cc(-c2cc(Cl)cc(Cl)c2)c(=O)c(-c2cccc(C(F)(F)F)c2)c1 | 156 to 160 °C
20 | COc1ccc(C2OCC(C)(C)C(C(=O)NCCC(=O)O)O2)cc1 (stereo not drawn) | 135 to 136 °C

Row | SMILES | melting point
21 | COc1ccc2c(c1)CCc1cnc(N(C)c3cc(OC)c(OC)c(OC)c3)nc1-2 | 199 to 201 °C
22 | C#Cc1c(C#N)nn(-c2c(Cl)cc(C(F)(F)F)cc2Cl)c1N | 215 to 216 °C
23 | COc1ccc(S(=O)(=O)Nc2cc(C)c(S(=O)(=O)C[N+](=O)[O-])c(C)c2)cc1 | 141 to 142 °C
24 | CC(=O)CC[C@H](NC(=O)OCc1ccccc1)C(N)=O | 142 to 144 °C
25 | CNC(=C[N+](=O)[O-])NCCSCc1cc(OC)ccn1 | 107 to 108 °C
26 | Nc1c(F)c(N2CCNCC2)c(F)c2c1c(=O)c(C(=O)O)cn2C1CC1 | 257 to 259 °C
27 | Cc1c(CC(=O)O)oc2ccc(C(C)(C)C)cc12 | 169 to 170 °C
28 | O=C(c1ccccc1)P1(=O)Oc2ccccc2-c2ccccc21 (stereo not drawn) | 134 to 135 °C
29 | CC(C)C1(C)C(=O)N=C2c3ccccc3C(=O)N21 (stereo not drawn) | 98 to 100 °C
30 | O=C(O)CCCC(=O)N1C2CCC(C2)C1C(=O)O (stereo not drawn) | 155 to 159 °C
31 | CCOC(=O)C1=C(N)N=C(SCC)C(C(=O)OCC)C1c1cccc([N+](=O)[O-])c1 (stereo not drawn) | 187 °C
32 | COC(=O)n1nc2nc3n(c(=O)c2c1N)CCS3 | 200 to 203 °C
33 | COc1cc(C)c(C(=O)c2c(OC)cncc2C(F)(F)F)c(OC)c1OC | 103 to 106 °C
34 | CCOC(=O)c1cn(C2CC2)c2cc(N3C[C@@H](C)N[C@@H](C)C3)c(F)c(N)c2c1=O | 194 to 196 °C
35 | c1ccc(CN(Cc2ccccc2)c2c(-c3ccccc3)sc3ccccc23)cc1 | 92 to 93 °C
36 | CCCOc1nc2ccc(Br)cc2c(=O)n1CCC | 57 to 59 °C
37 | C[C@H](N)C(=O)Nn1cccc1 | 63 to 66 °C
38 | CC(=O)SCC(Cc1ccc(C)cc1)C(=O)Nc1cccc(C(=O)O)c1 (stereo not drawn) | 174 to 175 °C
39 | COC(=O)c1ccccc1NC(=O)CCl | 97 to 99 °C
40 | CC(C)(C)c1cc(SC(=O)NN)cc(C(C)(C)C)c1O | 130 to 131 °C

The next lines start with the values.

Row | melting point | SMILES
41 | 193 to 196 °C | Cc1ccc(-c2ccc3c(c2)C=C(C(=O)NC2CCN(CCC4CCCCC4)CC2)CCO3)cc1
42 | 58 to 61 °C | CCCCCNC(=O)c1cc(N2CCN(C(=O)c3ccccc3C(F)(F)F)CC2)nn1C(=O)OCc1ccccc1
43 | 154 to 156 °C | CC(C)(C)c1cc(-c2nc3ncccc3o2)cc(C(C)(C)C)c1
44 | 207 to 208 °C | O=C(O)C=Cc1ccc2ccccc2c1
45 | 181 to 183 °C | COc1cn(-c2cccc3c2OC(F)(F)O3)nc(-c2ccnn2-c2ccccc2)c1=O
46 | 80 to 82 °C | CCOC(=O)C(=O)Cc1c(OCc2ccccc2)cc(C)cc1[N+](=O)[O-]
47 | 135 to 140 °C | CC(=O)NC[C@H]1CN(c2ccc(N3C[C@H]4CN(C(=O)OCc5ccccc5)C[C@H]4C3)cc2)C(=O)O1
48 | 217 to 218 °C | O=C(O)C1c2ccccc2COc2cc(Br)ccc21 (stereo not drawn)
49 | 163 to 164 °C | CCCCc1nc(Cl)c(CO)n1Cc1ccc(-c2ccccc2-c2n[nH]c(=O)o2)cc1
50 | 189 °C | O=C(Nc1ccc(OC(F)(F)F)cc1)c1ccccc1NCc1ccc(=O)[nH]c1
51 | 87 °C | Cc1ccc(-c2nc(CCCCCCOC(C)(C)c3nnn[nH]3)c(C)o2)cc1
52 | 153 to 155 °C | CC(C)(C)OC(=O)NC1CCCCCC=CC2CC2(C(=O)NS(=O)(=O)C2CC2)NC(=O)C2CC(OC(=O)c3ccc4c(c3)OCO4)CN2C1=O (stereo not drawn)
53 | 250 °C | O=C(NC1CCC1)c1cc(Nc2nc(N3CCCC3c3ccccn3)nc3ccoc23)[nH]n1 (stereo not drawn)
54 | 190 to 192 °C | CNC(=O)c1c(NC(=O)c2cc(C(F)(F)F)nn2-c2ncccc2Cl)ccc2cn[nH]c12
55 | 219 to 222 °C | O=C(Nc1cccc(C(F)(F)F)c1F)c1cccnc1NCc1ccc(=O)[nH]c1
56 | 226 to 227 °C | CCCc1c2c(c3oc(C(=O)O)cc(=O)c3c1O)CCCC2
57 | 115 to 116 °C | Cc1ccc(-c2cc(Cl)c3ccccc3n2)cc1Cl
58 | 154 to 155 °C | CC(C)(C)c1ccc(CCC(=O)CC2CCCCC2)cc1NC(=O)CC1c2ccccc2Oc2ccccc21
59 | 110 °C | CC1(C)CC(NC(=O)CCC(C)(c2ccc(O)c(C(C)(C)C)c2)c2ccc(O)c(C(C)(C)C)c2)CC(C)(C)N1
60 | 208 to 209 °C | Cc1ccc(-c2ccc3c(c2)C=C(C(=O)Nc2ccc(CS(=O)Cc4ccccc4)cc2)CCO3)cc1 (stereo not drawn)

Row | melting point | SMILES
61 | 140 °C | Cn1cncc1C(O)c1ccc2nc(Cl)nc(-c3cccc(Cl)c3)c2c1 (stereo not drawn)
62 | 81.5 to 82.5 °C | O=C1c2ccccc2C(=O)N1CCCSc1ncccn1
63 | 129 to 130 °C | Cc1nn(-c2ccccn2)cc1COc1ccc(CCC(=O)O)cc1
64 | 177 °C | OC(c1cccc(OCc2ccc3ccccc3n2)c1)(c1nccs1)C(F)(F)F (stereo not drawn)
65 | 122 to 124 °C | CCOC(=O)c1cnc(CCOC)nc1NCc1ccc(-c2ccccc2-c2nnn[nH]2)cc1
66 | 80 °C | CN(C(=O)OCc1ccccc1)[C@H]1CNc2ccccc2C1
67 | 273 to 275 °C | CS(=O)(=O)c1ccc(-c2c(-c3ccccc3)[nH]c3ccc(Cl)cc23)cc1
68 | 79 to 80 °C | CCSc1cc2ccccc2c(=O)n1Cc1ccccc1
69 | 138 to 141 °C | CC(=O)SCC(Cc1ccccc1)C(=O)Nc1cc2ccccc2cc1C(=O)O (stereo not drawn)
70 | 151 to 153 °C | COc1ccc(Nc2nc(Cl)c3sccc3n2)c(C)c1
71 | 89 °C | CC(=NOCCO)c1ccc2ccccc2n1
72 | 192 to 193 °C | N#CCCNC(=O)c1cccc(-c2cccc3nc(Cc4cccc(C(F)(F)F)c4)cn23)c1
73 | 148 to 152 °C | Cc1ncsc1C(=O)Nc1cnc(-n2nc(C(F)(F)F)cc2C2CC2)nc1
74 | 67 °C | CCOC(=O)c1cnn(-c2ccccc2)c1OC
75 | 225 to 227 °C | Fc1ccc2[nH]c3c(c2c1)Cc1ccccc1-3
76 | 189 to 190 °C | CN(CCOc1ccc(C=C2SC(=O)NC2=O)cc1)c1ncccn1
77 | 165 to 168 °C | O=C(O)CCc1cc2cc(Cl)ccc2n1S(=O)(=O)c1ccccc1
78 | 220 °C | O=C(O)c1cnc2ccc(-c3ccc(C(F)(F)F)cc3)cn12
79 | 251 to 252 °C | CC(C)n1nc(-c2sc(NC(=O)c3ccccc3F)nc2-c2ccccc2)ccc1=O
80 | 139 to 148 °C | COc1c(Nc2ncc(Cl)c(N[C@H]3[C@@H](C(N)=O)[C@@H]4C=C[C@H]3C4)n2)ccc2c1CC(N1CCOCC1)CCC2 (stereo partly drawn)

Row | melting point | SMILES
81 | 204 to 205 °C | CN(C)c1ccc(NC(=O)c2cc3cc([Si](C)(C)C)ccc3n2Cc2cccc(F)c2)cn1
82 | 114 to 115 °C | CCOC(=O)c1ccn2nccc2n1
83 | 75 to 77 °C | Cc1cc(Oc2cccc(C(F)(F)F)c2)nc(C(=O)O)c1
84 | 172 to 174 °C | CC(C)C1(c2ccccc2O)C(=O)N(C)c2ccccc21 (stereo not drawn)
85 | 237 °C | Cc1cc(-c2cnn3c(C(F)(F)F)cc(-c4ccc(C(F)(F)F)c(C)c4)nc23)ccn1
86 | 211 to 213 °C | c1ccc(-c2ccc3c(c2)CCN(Cc2c[nH]c4ncccc24)C3)cc1
87 | 229 to 231 °C | COc1cc(OC)nc(NC(=O)NS(=O)(=O)c2cccc3c2S(=O)(=O)N(C)C3)n1
88 | 133 °C | CC(=O)OC1CSC(Oc2ccc(Cl)c(-c3cccnc3)c2)C(OC(C)=O)C1OC(C)=O (stereo not drawn)
89 | 109 to 111 °C | Cc1[nH]c2ccc(CCN(C)C3CCOCC3)cc2c1C(=O)OCc1ccccc1
90 | 163 to 165 °C | CCOC(=O)c1cc(S(N)(=O)=O)c(Cl)cc1NCc1ccco1
91 | 131 to 133 °C | CCN1NC=C2C1=NC=CC2(ON=C(C)C)C(O)c1ccccn1 (stereo not drawn)
92 | 197 to 198 °C | CC(C)n1nc(-c2sc(NC(=O)CCN3CCOCC3)nc2-c2ccccc2)ccc1=O
93 | 183 to 184 °C | O=C1OC(=O)C(c2ccccc2)=C1c1ccccc1
94 | 151 °C | CCOc1ccc2c(c1)n(C1CCCC1)c(=O)n2S(=O)(=O)c1ccc(C(=O)OC)cc1OC
95 | 133 to 134 °C | NS(=O)(=O)c1ccc(C2=C(c3cccc(F)c3F)CCC2)cc1
96 | 131 to 132 °C | CCOC(=O)c1cc2c(C=O)ccc(OCc3ccccc3)c2[nH]1
97 | 136 °C | O=S(=O)(NCCc1ccc(OCc2nnn[nH]2)cc1)c1ccc(Cl)cc1
98 | 117 to 118 °C | Cc1oc(-c2ccccc2)nc1COc1ccc(Cn2cc(C=O)c(-c3ccccc3)c2)cc1
